System: mouse model of focal segmental glomerulosclerosis
Experiment: Mouse model of focal segmental glomerulosclerosis (adriamycin)
Assay type: in vivo
Settings: for serum urea nitrogen level: model 16.08±0.23; for urine protein level: model 547.0±106.3; for glomerular lesions, renal tissue pathology (H&E, PAS, Sirius red stain): FIG. 1; for glomerular lesions, renal tissue pathology (H&E, PAS, Sirius red stain) / body weight compared with the FSGS group: control compound 25 mg/kg, irbesartan 50 mg/kg; for body weight compared with the FSGS group: gavage daily 6 weeks, compound 1-1 10, 25, 50 mg/kg
Protocol: The method was as follows:
Each mouse in the model group, the treatment groups and the positive control group was injected once into the tail vein with adriamycin at a dose of 8 mg/kg, and each mouse in the control group was injected once into the tail vein with saline at the same dose. The mice in the control group and model group were administered equal amount of saline by gavage for 6 weeks, and the mice in other group were administered corresponding compound in doses by gavage at a fixed time each day for 6 weeks after modelling with adriamycin. The body weights were recorded weekly and urine samples were collected.
Collection of urine samples: animals were placed in separate metabolic cages by group on days 0, 7, 14, 21, 28, 35, and 42 after modelling, with free access to water and no access to food, and urine samples were collected from each group of mice.
Determination of urine protein level using Coomassie brilliant blue (CBB) method: urine protein level was determined by urine protein quantitative test kit (Nanjing Jiancheng Bioengineering Institute). CBB working solution was prepared according to the kit instructions. 0.05 mL of each urine sample was mixed with 3 mL of CBB working solution, the mixture was allowed to stand for 5 min, and the absorbance value of each sample was determined at 595 nm. The urine protein levels samples of each group was calculated according to the protein standardization formula: urine protein level (mg/L)=(measured OD−blank OD)/(standard OD−blank OD)×563 mg/L.
Collection of serum samples: orbital blood from each mouse was collected in an EP tube, placed at 37° C. for 20 minutes, and centrifuged to obtain an upper layer of serum.
Collection of plasma samples: orbital blood from each mouse was collected in an anticoagulation tube, mixed well and stored at 4° C. for later use.
Determination of urea nitrogen level in plasma by diacetyl monoxime method: urea nitrogen level was determined by using blood urea nitrogen (BUN) test kit (Nanjing Jiancheng Bioengineering Institute). According to the kit instructions, 0.05 mL of anticoagulated plasma sample was mixed with 1 mL of oxime solution and 1 mL of acid working solution, and the mixtures were placed in a boiling water bath for 15 minutes. A UV-visible spectrophotometer was used to determine the absorbance values of each tube at a wavelength of 520 nm. Urea nitrogen levels in plasma samples of each group were calculated according to the formula: Urea nitrogen level (mmol/L)=(measured OD value−blank OD value)/(standard OD value−blank OD value)×10 mmol/L.
Collection of kidney tissue samples: kidneys were taken from mice after anesthesia, cut horizontally, and the upper part of the kidneys was embedded in OCT embedding box, sliced with frozen slicer and stored at −20° C.
H&E staining was used to assess pathological glomerular changes, and the procedure was as follows: frozen sections were fixed with 95% ethanol for 2 minutes, hydrated with distilled water, stained with hematoxylin for 3 minutes, washed with distilled water for 3 minutes, differentiated using 1% hydrochloric acid in ethanol for 10 seconds, washed with distilled water for 30 seconds, returned to blue in running water for 5 minutes, washed in distilled water for 30 seconds, stained with eosin for 30 seconds, washed with 75% and 85% ethanol for 20 seconds each, dehydrated rapidly with 95% ethanol for 1 minute, dehydrated with anhydrous ethanol, cleared to transparency in xylene (1 minute×3), and finally sealed with neutral balsam and photographed with a biomicroscope.

| Structure (SMILES) | serum urea nitrogen level reduced compared with the model group (25 mg/kg gavage, 6 weeks) [%] | urine protein level reduced compared with the model group (25 mg/kg gavage, 6 weeks) [%] | serum urea nitrogen level (25 mg/kg gavage, 6 weeks) [mmol/L] | urine protein level (25 mg/kg gavage, 6 weeks) [mg/L] | glomerular lesions, renal tissue pathology (H&E, PAS, Sirius red stain) | body weight compared with the FSGS group | serum urea nitrogen level vs model group (10 mg/kg gavage, 6 weeks) | urine protein level vs model group (10 mg/kg gavage, 6 weeks) | serum urea nitrogen level reduced compared with the model group (50 mg/kg gavage, 6 weeks) [%] | urine protein level reduced compared with the model group (50 mg/kg gavage, 6 weeks) [%] | serum urea nitrogen level (50 mg/kg gavage, 6 weeks) [mmol/L] | urine protein level (50 mg/kg gavage, 6 weeks) [mg/L] |
| --- | --- | --- | --- | --- | --- | --- | --- | --- | --- | --- | --- | --- |
| Cn1c(C(=O)NCCC(=O)O)cc2ccccc21 [3-[(1-methyl-1H-indole-2-carbonyl)amino]propionic acid, reference compound] | 20.3 | 22.6 | 12.82 ± 0.46 | 423 ± 64.7 | glomerular mesangial matrix hyperplasia is reduced compared with the model group, but increased compared with the treatment groups of compound 1-1 | increased body weights |  |  |  |  |  |  |
| CC(=O)OCCCNC(=O)c1c(C=O)c2ccccc2n1C [compound 1-1, propyl 3-[(3-formyl-1-methyl-1H-indole-2-carbonyl)amino]acetate] | 27.2 | 28.6 | 11.7 ± 0.33 | 390 ± 74.6 | significantly ameliorates glomerular lesions caused by FSGS | increased body weights | significantly reduced | significantly reduced | 29.8 | 42.7 | 11.29 ± 0.40 | 313 ± 57.6 |

From US12692232B2, “Indole carboxamide compound, preparation therefor and use thereof” (NANJING RUISHUNING MEDICAL TECHNOLOGY CO., LTD., priority 2021, dated 2026)
